Test results reported in paper PMC9207808 (ACS Chemical Biology, 2022).
Residues, ends and D or L forms follow the SMILES beside them.

Legend:
DocSTm [1] = experiment: Differential scanning fluorimetry (thermal stabilisation of Doc); assay type: binding, S. Typhimurium; conditions: for melting temperature shift ΔTm: DSF, DocSTm 5 μM, analyte 50 μM, Tm with analyte minus Tm of free DocSTm (42.9 ± 0.9 °C), SYPRO Orange, 20 mM K2HPO4, 50 mM (NH4)2SO4, pH 8.0, triplicate; for Average Tm / Tm: DocSTm 5 µM + 50 µM binder; for Average Tm: average of 3 replicates
Protocol: Experiments were performed in a Mx3005P qPCR System (Agilent) collecting fluorescence data with a temperature ramp of 25 to 95 °C. Samples were prepared in a buffer containing 20 mM K2HPO4 and 50 mM (NH4)2SO4 at pH 8.0. The SYPRO Orange dye (Sigma-Aldrich, 5000× stock in DMSO) was used to monitor protein denaturation and was diluted to a final concentration of 3×. For binding experiments, the final concentration of Doc was 5 μM. Each condition was performed in triplicate (ESI section 4) and the melting curves were plotted using GraphPad Prism 5 (GraphPad Software, U.S.A.). The melting temperatures were obtained by fitting the sigmoidal section of the curves to a Boltzmann sigmoid function.

DocSTm [2] = experiment: Surface plasmon resonance binding to immobilised Doc; design: species or system S. Typhimurium; conditions: for koff × 10^-6 / kon × 10^6: 1:1 kinetic fit, mean ± SD of at least 3 replicates; for kon × 10^6: single-cycle kinetics (multicycle for PhdSTm1-73); for Half-life of the complex: t1/2 = ln2 / koff
Protocol: Experiments were performed in a Biacore S200 (Cytiva) with a Series S sensor chip NTA (Cytiva). The data was analyzed using the Biacore Evaluation Software (Cytiva) and curves were plotted using GraphPad Prism 5 (GraphPad Software, U.S.A.). All experiments were performed at 22 °C with a running buffer containing 10 mM HEPES, 500 mM NaCl, 50 μM EDTA, and 0.005% (v/v) TWEEN 20 at pH 8.0. The surface was conditioned following the standard manufacturer’s guidelines and protein immobilization was performed with a 30–60 s pulse (flow rate of 5 μL/min) of Doc (150 nM) in running buffer. […] Surface regeneration was performed with a 1 min pulse of 0.5 M imidazole followed by a 1 min pulse of 0.35 M of EDTA at pH 8.0.
Binding to Doc was performed using a multicycle kinetics (MCK) setup for peptides 7, 10, and 14, while the remaining samples were tested using a single-cycle kinetics (SCK) setup. The surface was fully regenerated in between each analyte in both cases. In the MCK experiments, increasing concentrations of each analyte were injected with an 80 s pulse (30 μL/min) and dissociation times varied depending on the time required to fully dissociate the complex. The double-referenced sensorgrams (raw data subtracted from a blank injection and reference surface responses) were analyzed using a kinetic and/or a steady-state 1:1 binding model. In the SCK experiments, typically six concentrations of each analyte were sequentially injected with 80 s pulses (30 μL/min), and dissociation times varied depending on the time required to dissociate at least 5% of the complex. The double-referenced sensorgrams were fitted using a kinetic 1:1 binding model.
At least three independent replicates were measured for each analyte (ESI section 5). When a steady-state fit was applied, the reported Kd and its uncertainty correspond, respectively, to the average and standard deviations of the Kd obtained in each measurement. When a kinetic fit was applied, the reported rate constants (kon and koff) and their uncertainties correspond, respectively, to the average and standard deviations of the rate constants obtained in each measurement. In this case, reported Kd were calculated using the equation below, and the standard deviation of the rate constants was propagated. [drawing 1]

DocSTm [3] = experiment: Dot blot phosphorylation assay (EF-Tu phosphorylation by Doc); assay type: biochemical, S. Typhimurium; conditions: α-pThr, DocSTm 1 μM, EF-TuSTm 3 μM, ATP 1 mM, inhibitor 10 μM to 5 nM (3-fold dilutions), 16 h at RT
Protocol: Samples were prepared to a final volume of 10 μL. […] Samples were incubated for 16 h at RT and subsequently spotted on a nitrocellulose membrane. Phosphorylated EF-Tu was detected by immunodecoration using a rabbit monoclonal antiphosphothreonine antibody (Abcam, ab218195) at 1:2000 dilution (1 h at 4 °C), followed by incubation with a goat antirabbit IgG (H+L) HRP conjugate antibody (Advansta) at 1:10 000 dilution (1 h at RT). Chemiluminescence was developed using the HRP Luminata kit (Merck, WBLUR0100) and captured by an ImageQuant LAS4000 Western blot imaging system (Cytiva).

[4] = SPR, kinetic fit, KD calculated from mean koff and kon, SD propagated, 22 °C, pH 8.0

Row | Compound | melting temperature shift ΔTm (DocSTm [1]) [°C] | Average Tm (DocSTm [1]) [°C] | Tm (DocSTm [1]; replicate 1) [°C] | Tm (DocSTm [1]; replicate 2) [°C] | Tm (DocSTm [1]; replicate 3) [°C] | Kd (DocSTm [2]; SPR kinetic fit, replicate 1) [pM] | Kd (DocSTm [2]; SPR kinetic fit, replicate 2) [pM] | Kd (DocSTm [2]; SPR kinetic fit, replicate 3) [pM] | koff × 10^-6 (DocSTm [2]; SPR, 22 °C, pH 8.0) | kon × 10^6 (DocSTm [2]; SPR, 22 °C, pH 8.0) | Kd (DocSTm [2]; [4]) [pM] | Half-life of the complex (DocSTm [2]) [h] | inhibition of EF-TuSTm phosphorylation by DocSTm (in words) (DocSTm [3]) | Kd (DocSTm [2]; SPR kinetic fit, replicate 4) [pM]
1 | CC[C@H](C)[C@H](NC(=O)[C@H](C)NC(=O)[C@H](C)NC(=O)[C@H](Cc1ccccc1)NC(=O)[C@H](CCC(=O)O)NC(=O)[C@H](CC(=O)O)NC(=O)[C@H](CC(=O)O)NC(=O)[C@H](CCSC)NC(=O)[C@H](Cc1c[nH]c2ccccc12)NC(C)=O)C(=O)N[C@@H](CCSC)C(=O)N[C@@H](C)C(=O)N[C@H](C(=O)N[C@@H](Cc1c[nH]cn1)C(=O)NCC(=O)N[C@@H](CC(N)=O)C(=O)N[C@@H](C)C(=O)N[C@@H](CC(C)C)C(=O)N[C@@H](CCCNC(=N)N)C(=O)N[C@@H](CCC(=O)O)C(=O)N[C@@H](CC(C)C)C(=O)N[C@@H](C)C(=O)N[C@@H](CC(=O)O)C(=O)N[C@@H](CCCCN)C(=O)O)C(C)C [peptide 13] (Ac-WMDDEFAAIMAVHGNALRELADK-OH; C-terminus assumed) | 27.7 ± 0.9 | 70.6 ± 0.2 | 70.8 | 70.4 | 70.6 | 47.5 | 45.1 | 35.2 | 112 ± 38 ×10^-6 s-1 | 2.705 ± 1.041 ×10^6 M-1 s-1 | 42 ± 21 | 1.7 ± 0.6 | inhibited DocSTm at similar concentrations to peptide 1 | 
2 | CC[C@H](C)[C@H](NC(=O)[C@H](C)NC(=O)[C@H](C)NC(=O)[C@H](Cc1ccccc1)NC(=O)[C@H](CCC(=O)O)NC(=O)[C@H](CC(=O)O)NC(=O)[C@H](CC(=O)O)NC(=O)[C@H](CCSC)NC(=O)[C@H](Cc1c[nH]c2ccccc12)NC(C)=O)C(=O)N[C@@H](CCSC)C(=O)N[C@@H](C)C(=O)N[C@H](C(=O)N[C@@H](Cc1c[nH]cn1)C(=O)NCC(=O)N[C@@H](CC(N)=O)C(=O)N[C@@H](CCC(=O)O)C(=O)N[C@@H](CC(C)C)C(=O)N[C@@H](CCCNC(=N)N)C(=O)N[C@@H](C)C(=O)N[C@@H](CC(C)C)C(=O)N[C@@H](C)C(=O)N[C@@H](CC(=O)O)C(=O)N[C@@H](CCCCN)C(=O)O)C(C)C [peptide 16] (Ac-WMDDEFAAIMAVHGNELRALADK-OH; C-terminus assumed) | 30.7 ± 0.9 | 73.6 ± 0.2 | 73.5 | 73.5 | 73.9 | 68.7 | 70.3 | 51.8 | 136 ± 41 ×10^-6 s-1 | 2.101 ± 0.333 ×10^6 M-1 s-1 | 65 ± 22 | 1.4 ± 0.4 |  | 
3 | CC[C@H](C)[C@H](NC(=O)[C@H](C)NC(=O)[C@H](C)NC(=O)[C@H](Cc1ccccc1)NC(=O)[C@H](CCC(=O)O)NC(=O)[C@H](CC(=O)O)NC(=O)[C@H](CC(=O)O)NC(=O)[C@H](CCSC)NC(=O)[C@H](Cc1c[nH]c2ccccc12)NC(C)=O)C(=O)N[C@@H](CCSC)C(=O)N[C@@H](C)C(=O)N[C@H](C(=O)N[C@@H](Cc1c[nH]cn1)C(=O)NCC(=O)N[C@@H](CC(N)=O)C(=O)N[C@@H](CCC(=O)O)C(=O)N[C@@H](CC(C)C)C(=O)N[C@@H](CCCNC(=N)N)C(=O)N[C@@H](CCC(=O)O)C(=O)N[C@@H](CC(C)C)C(=O)N[C@@H](C)C(=O)N[C@@H](C)C(=O)N[C@@H](CCCCN)C(=O)O)C(C)C [peptide 18] (Ac-WMDDEFAAIMAVHGNELRELAAK-OH; C-terminus assumed) | 28.0 ± 0.9 | 70.9 ± 0.3 | 71.1 | 71.0 | 70.6 | 53.2 | 18.9 | 38.5 | 84 ± 33 ×10^-6 s-1 | 2.508 ± 0.964 ×10^6 M-1 s-1 | 33 ± 18 | 2.3 ± 0.9 |  | 
4 | CC[C@H](C)[C@H](NC(=O)[C@H](C)NC(=O)[C@H](C)NC(=O)[C@H](Cc1ccccc1)NC(=O)[C@H](CCC(=O)O)NC(=O)[C@H](CC(=O)O)NC(=O)[C@H](CC(=O)O)NC(=O)[C@H](CCSC)NC(=O)[C@H](Cc1c[nH]c2ccccc12)NC(C)=O)C(=O)N[C@@H](CCSC)C(=O)N[C@@H](C)C(=O)N[C@H](C(=O)N[C@@H](Cc1c[nH]cn1)C(=O)NCC(=O)N[C@@H](CC(N)=O)C(=O)N[C@@H](CCC(=O)O)C(=O)N[C@@H](CC(C)C)C(=O)N[C@@H](CCCNC(=N)N)C(=O)N[C@@H](CCC(=O)O)C(=O)N[C@@H](CC(C)C)C(=O)N[C@@H](C)C(=O)N[C@@H](CC(=O)O)C(=O)N[C@@H](C)C(=O)O)C(C)C [peptide 19] (Ac-WMDDEFAAIMAVHGNELRELADA-OH; C-terminus assumed) | 25.2 ± 1.1 | 68.0 ± 0.6 | 68.8 | 67.6 | 67.7 | 101 | 63.4 | 100 | 126 ± 11 ×10^-6 s-1 | 1.441 ± 0.462 ×10^6 M-1 s-1 | 87 ± 29 | 1.5 ± 0.1 | inhibited DocSTm at similar concentrations to peptide 1 | 103
5 | CC[C@H](C)[C@H](NC(=O)[C@H](C)NC(=O)[C@H](C)NC(=O)[C@H](Cc1ccccc1)NC(=O)[C@H](CCC(=O)O)NC(=O)[C@H](CC(=O)O)NC(=O)[C@H](CC(=O)O)NC(=O)[C@H](CCSC)NC(=O)[C@H](Cc1c[nH]c2ccccc12)NC(C)=O)C(=O)N[C@@H](CCSC)C(=O)N[C@@H](C)C(=O)N[C@H](C(=O)N[C@@H](Cc1c[nH]cn1)C(=O)NCC(=O)N[C@@H](CC(N)=O)C(=O)N[C@@H](CCC(=O)O)C(=O)N[C@@H](CC(C)C)C(=O)N[C@@H](CCCNC(=N)N)C(=O)N[C@@H](CCC(=O)O)C(=O)N[C@@H](CC(C)C)C(=O)N[C@@H](C)C(=O)O)C(C)C [peptide 20] (Ac-WMDDEFAAIMAVHGNELRELA-OH; N-terminus and C-terminus assumed) | 25.6 ± 0.9 | 68.5 ± 0.1 | 68.5 | 68.4 | 68.5 | 447 | 414 | 424 | 393 ± 18 ×10^-6 s-1 | 0.917 ± 0.023 ×10^6 M-1 s-1 | 428 ± 23 | 0.49 ± 0.02 | inhibition of DocSTm comparable to 1 | 
